ChEMBL document CHEMBL1201862, “PubChem BioAssay data set” (2004)
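These data come from cells grown in 96-well plates and exposed to compound for 48 hours at five concentrations. GI50 is the concentration that inhibits growth by half.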 Activity calls are given as the source filed them. Cut-off read from the data, not from the text of the source: active = GI50 up to about 1.1 µM and inactive = higher.

Tests used:
Experiment in all cases: NCI tumour cell line growth inhibition, 48 h
[1] = test system: 786-0
[2] = test system: A498
[3] = test system: A549
[4] = test system: ACHN
[5] = test system: BT-549
[6] = test system: CAKI-1
[7] = test system: COLO 205
[8] = test system: DU-145
[9] = test system: EKVX
[10] = test system: HCC 2998
[11] = test system: HCT-116
[12] = test system: HCT-15
[13] = test system: HL-60
[14] = test system: HOP-62
[15] = test system: HOP-92
[16] = test system: HT-29
[17] = test system: Hs-578T
[18] = test system: IGROV-1
[19] = test system: K562
[20] = test system: KM12
[21] = test system: LOX IMVI
[22] = test system: M14
[23] = test system: MCF7
[24] = test system: MDA-MB-231
[25] = test system: MDA-MB-435
[26] = test system: MDA-N
[27] = test system: MOLT-4
[28] = test system: Malme-3M
[29] = test system: NCI-H226
[30] = test system: NCI-H23
[31] = test system: NCI-H460
[32] = test system: NCI-H522
[33] = test system: NCI/ADR-RES
[34] = test system: OVCAR-3
[35] = test system: OVCAR-4
[36] = test system: OVCAR-5
[37] = test system: OVCAR-8
[38] = test system: PC-3
[39] = test system: RPMI-8226
[40] = test system: RXF 393
[41] = test system: SF-268
[42] = test system: SF-295
[43] = test system: SF-539
[44] = test system: SK-MEL-28
[45] = test system: SK-MEL-2
[46] = test system: SK-MEL-5
[47] = test system: SK-OV-3
[48] = test system: SN12C
[49] = test system: SNB-19
[50] = test system: SNB-75
[51] = test system: SR
[52] = test system: SW-620
[53] = test system: T47D
[54] = test system: TK-10
[55] = test system: U-251
[56] = test system: UACC-257
[57] = test system: UACC-62
[58] = test system: UO-31
[59] = test system: CCRF-CEM

`Cc1ccccc1OC(C)C(=O)NN1C(=O)CSC1c1ccc(Cl)cc1` (stereo not given) was tested, and the GI50 [1] was 18.2 µM (inactive), the GI50 [2] was 24 µM (inactive) and the GI50 [3] was 30.2 µM (inactive). The GI50 [4] was 33 µM (inactive), the GI50 [5] was 44.8 µM (inactive) and the GI50 [6] was 56.6 µM (inactive). For the same molecule, the GI50 [7] was > 56.1 µM (inactive), the GI50 [8] was 38.2 µM (inactive) and the GI50 [9] was 37.9 µM (inactive). The GI50 [10] was 34.9 µM (inactive), the GI50 [11] was 31.4 µM (inactive) and the GI50 [12] was 46.6 µM. For the same molecule, the GI50 [13] was 21.1 µM (inactive), the GI50 [14] was 21 µM (inactive) and the GI50 [15] was 31 µM (inactive). For the same molecule, the GI50 [16] was 18.4 µM (inactive), the GI50 [17] was 41.8 µM (inactive) and the GI50 [18] was 38.5 µM (inactive). For the same molecule, the GI50 [19] was 23.6 µM (inactive), the GI50 [20] was 42.2 µM (inactive) and the GI50 [21] was 24.4 µM (inactive). The GI50 [22] was 41.5 µM (inactive), the GI50 [23] was 32.1 µM (inactive) and the GI50 [24] was 26.2 µM (inactive). For the same molecule, the GI50 [25] was 57.9 µM (inactive), the GI50 [26] was 60.3 µM (inactive) and the GI50 [27] was 22.1 µM (inactive). For the same molecule, the GI50 [28] was 25.7 µM (inactive), the GI50 [29] was > 49.1 µM (inactive) and the GI50 [30] was 56.1 µM (inactive). The GI50 [31] was 26.1 µM (inactive), the GI50 [32] was 4.16 µM (inactive) and the GI50 [33] was 54.3 µM (inactive). The GI50 [34] was 31 µM (inactive), the GI50 [35] was 36.4 µM (inactive) and the GI50 [36] was 54.6 µM (inactive). The GI50 [37] was 52 µM (inactive), the GI50 [38] was 35.7 µM (inactive) and the GI50 [39] was 26.5 µM (inactive). For the same molecule, the GI50 [40] was 38.5 µM (inactive), the GI50 [41] was 25.4 µM (inactive) and the GI50 [42] was 25.6 µM (inactive). For the same molecule, the GI50 [43] was 26.5 µM (inactive), the GI50 [44] was 73.3 µM (inactive) and the GI50 [45] was > 53.7 µM (inactive). The GI50 [46] was 49.9 µM (inactive), the GI50 [47] was 47.1 µM (inactive) and the GI50 [48] was 17.5 µM (inactive). The GI50 [49] was 59.2 µM (inactive), the GI50 [50] was 35.7 µM (inactive) and the GI50 [51] was 5.47 µM (inactive). The GI50 [52] was 32.1 µM (inactive), the GI50 [53] was 51.1 µM (inactive) and the GI50 [54] was 47.4 µM (inactive). The GI50 [55] was 30 µM (inactive), the GI50 [56] was 55 µM (inactive) and the GI50 [57] was 58.9 µM (inactive). The GI50 [58] was > 100 µM (inactive).

In the case of `O=C(NCCc1ccccc1)[C@H]1CCCC[C@@H]1CCO`, the GI50 [1] is reported as > 100 µM (inactive), the GI50 [2] is reported as > 100 µM (inactive) and the GI50 [3] is reported as > 100 µM (inactive). For the same molecule, the GI50 [4] was > 100 µM (inactive), the GI50 [5] was > 100 µM (inactive) and the GI50 [6] was > 100 µM (inactive). For the same molecule, the GI50 [59] was > 100 µM (inactive), the GI50 [7] was > 100 µM (inactive) and the GI50 [8] was > 100 µM (inactive). The GI50 [9] was > 100 µM (inactive), the GI50 [10] was > 100 µM (inactive) and the GI50 [11] was > 100 µM (inactive). The GI50 [12] was > 100 µM, the GI50 [13] was > 100 µM (inactive) and the GI50 [14] was > 100 µM (inactive). For the same molecule, the GI50 [15] was > 100 µM (inactive), the GI50 [16] was > 100 µM (inactive) and the GI50 [17] was > 100 µM (inactive). For the same molecule, the GI50 [18] was > 100 µM (inactive), the GI50 [19] was > 100 µM (inactive) and the GI50 [20] was > 100 µM (inactive). The GI50 [21] was > 100 µM (inactive), the GI50 [22] was > 100 µM (inactive) and the GI50 [23] was > 100 µM (inactive). For the same molecule, the GI50 [24] was > 100 µM (inactive), the GI50 [25] was > 100 µM (inactive) and the GI50 [26] was > 100 µM (inactive). The GI50 [27] was > 100 µM (inactive), the GI50 [29] was > 100 µM (inactive) and the GI50 [30] was > 100 µM (inactive). The GI50 [31] was > 100 µM (inactive), the GI50 [32] was > 100 µM (inactive) and the GI50 [33] was > 100 µM (inactive). For the same molecule, the GI50 [34] was > 100 µM (inactive), the GI50 [35] was > 100 µM (inactive) and the GI50 [36] was > 100 µM (inactive). For the same molecule, the GI50 [37] was > 100 µM (inactive), the GI50 [38] was > 100 µM (inactive) and the GI50 [39] was > 100 µM (inactive). For the same molecule, the GI50 [40] was > 100 µM (inactive), the GI50 [41] was > 100 µM (inactive) and the GI50 [42] was > 100 µM (inactive). For the same molecule, the GI50 [43] was > 100 µM (inactive), the GI50 [44] was > 100 µM (inactive) and the GI50 [45] was > 100 µM (inactive). For the same molecule, the GI50 [46] was > 100 µM (inactive), the GI50 [47] was > 100 µM (inactive) and the GI50 [48] was > 100 µM (inactive). The GI50 [50] was > 100 µM (inactive), the GI50 [51] was > 100 µM (inactive) and the GI50 [52] was > 100 µM (inactive). For the same molecule, the GI50 [53] was > 100 µM (inactive), the GI50 [54] was > 100 µM (inactive) and the GI50 [55] was > 100 µM (inactive). For the same molecule, the GI50 [56] was > 100 µM (inactive), the GI50 [57] was > 100 µM (inactive) and the GI50 [58] was > 100 µM (inactive).
